# Assay results published in the OligoGym collection.
# HELM strings list units from the 5' end as sugar, base in round brackets, then linkage (d deoxyribose, r ribose, m 2'-O-methyl, p phosphodiester). Strings are as the collection lists them, not checked against the first reports. ss, as = sense and antisense strand; [lna] = locked nucleic acid (LNA); [hna] = hexitol nucleic acid; [fl2r] = 2'-fluoro
# Conditions: siRNA
# Note: test system not given here.
row,Substance,target mRNA knockdown
1,RNA1{r(C)p.r(U)p.r(U)p.r(A)p.r(C)p.r(G)p.r(C)p.r(U)p.r(G)p.r(A)p.r(G)p.r(U)p.r(A)p.r(C)p.r(U)p.r(U)p.r(C)p.r(G)p.r(A)p.r(T)p.r(T)}|RNA2{r(U)p.r(C)p.r(G)p.r(A)p.r(A)p.r(G)p.r(U)p.r(A)p.r(C)p.r(U)p.r(C)p.r(A)p.r(G)p.r(C)p.r(G)p.[lna](U)p.r(A)p.r(A)p.r(G)p.r(T)p.r(T)}$$$RNA1{StrandType:ss}|RNA2{StrandType:as}$,81%
2,RNA1{r(C)p.r(U)p.r(U)p.r(A)p.r(C)p.r(G)p.r(C)p.r(U)p.r(G)p.r(A)p.r(G)p.r(U)p.r(A)p.r(C)p.r(U)p.r(U)p.r(C)p.r(G)p.r(A)p.r(T)p.r(T)}|RNA2{r(U)p.r(C)p.r(G)p.r(A)p.r(A)p.r(G)p.r(U)p.r(A)p.r(C)p.r(U)p.r(C)p.r(A)p.r(G)p.r(C)p.r(G)p.r(U)p.[lna](A)p.r(A)p.r(G)p.r(T)p.r(T)}$$$RNA1{StrandType:ss}|RNA2{StrandType:as}$,93%
3,RNA1{r(C)p.r(U)p.r(U)p.r(A)p.r(C)p.r(G)p.r(C)p.r(U)p.r(G)p.r(A)p.r(G)p.r(U)p.r(A)p.r(C)p.r(U)p.r(U)p.r(C)p.r(G)p.r(A)p.r(T)p.r(T)}|RNA2{r(U)p.r(C)p.r(G)p.r(A)p.r(A)p.r(G)p.r(U)p.r(A)p.r(C)p.r(U)p.r(C)p.r(A)p.r(G)p.r(C)p.r(G)p.r(U)p.r(A)p.[lna](A)p.r(G)p.r(T)p.r(T)}$$$RNA1{StrandType:ss}|RNA2{StrandType:as}$,92%
4,RNA1{r(C)p.r(U)p.r(U)p.r(A)p.r(C)p.r(G)p.r(C)p.r(U)p.r(G)p.r(A)p.r(G)p.r(U)p.r(A)p.r(C)p.r(U)p.r(U)p.r(C)p.r(G)p.r(A)p.r(T)p.r(T)}|RNA2{r(U)p.r(C)p.r(G)p.r(A)p.r(A)p.r(G)p.r(U)p.r(A)p.r(C)p.r(U)p.r(C)p.r(A)p.r(G)p.r(C)p.r(G)p.r(U)p.r(A)p.r(A)p.[lna](G)p.r(T)p.r(T)}$$$RNA1{StrandType:ss}|RNA2{StrandType:as}$,88%
5,RNA1{r(C)p.r(U)p.r(U)p.r(A)p.r(C)p.r(G)p.r(C)p.r(U)p.r(G)p.r(A)p.r(G)p.r(U)p.r(A)p.r(C)p.r(U)p.r(U)p.r(C)p.r(G)p.r(A)p.r(T)p.r(T)}|RNA2{r(U)p.r(C)p.r(G)p.r(A)p.r(A)p.r(G)p.r(U)p.r(A)p.r(C)p.r(U)p.r(C)p.r(A)p.r(G)p.r(C)p.r(G)p.r(U)p.r(A)p.r(A)p.r(G)p.[lna](T)p.[lna](T)}$$$RNA1{StrandType:ss}|RNA2{StrandType:as}$,93%
6,RNA1{r(C)p.r(U)p.r(U)p.r(C)p.r(U)p.r(U)p.r(C)p.r(G)p.r(U)p.r(C)p.r(G)p.r(A)p.r(G)p.r(A)p.r(C)p.r(C)p.r(A)p.r(U)p.r(G)p.d(T)p.d(T)}|RNA2{r(C)p.r(A)p.r(U)p.r(G)p.r(G)p.r(U)p.r(C)p.r(U)p.r(C)p.r(G)p.r(A)p.r(C)p.r(G)p.r(A)p.r(A)p.r(G)p.r(A)p.r(A)p.r(G)p.d(T)p.d(T)}$$$RNA1{StrandType:ss}|RNA2{StrandType:as}$,45%
7,RNA1{r(G)p.[fl2r](A)p.r(A)p.r(A)p.[fl2r](C)p.[fl2r](U)p.r(G)p.r(G)p.[fl2r](U)p.[fl2r](A)p.[fl2r](C)p.[fl2r](U)p.[fl2r](U)p.[fl2r](U)p.[fl2r](C)p.[fl2r](C)p.[fl2r](C)p.[fl2r](C)p.[fl2r](C)p.r(T)p.r(T)}|RNA2{r(G)p.r(G)p.r(G)p.r(G)p.r(G)p.r(A)p.r(A)p.r(A)p.r(G)p.r(U)p.r(A)p.r(C)p.r(C)p.r(A)p.r(G)p.r(U)p.r(U)p.r(U)p.r(C)p.r(T)p.r(T)}$$$RNA1{StrandType:ss}|RNA2{StrandType:as}$,60%
8,RNA1{r(G)p.[fl2r](C)p.r(A)p.r(G)p.[fl2r](C)p.r(A)p.[fl2r](C)p.r(G)p.r(A)p.[fl2r](C)p.[fl2r](U)p.[fl2r](U)p.[fl2r](C)p.[fl2r](U)p.[fl2r](U)p.[fl2r](C)p.r(A)p.r(A)p.r(G)p.r(T)p.r(T)}|RNA2{[fl2r](C)p.[fl2r](U)p.[fl2r](U)p.r(G)p.r(A)p.r(A)p.r(G)p.r(A)p.r(A)p.r(G)p.[fl2r](U)p.[fl2r](C)p.r(G)p.[fl2r](U)p.r(G)p.[fl2r](C)p.[fl2r](U)p.r(G)p.[fl2r](C)p.r(T)p.r(T)}$$$RNA1{StrandType:ss}|RNA2{StrandType:as}$,83%
9,RNA1{r(G)p.[fl2r](C)p.r(A)p.r(G)p.[fl2r](C)p.r(A)p.[fl2r](C)p.r(G)p.r(A)p.[fl2r](C)p.[fl2r](U)p.[fl2r](U)p.[fl2r](C)p.[fl2r](U)p.[fl2r](U)p.[fl2r](C)p.r(A)p.r(A)p.r(G)p.r(T)p.r(T)}|RNA2{r(C)p.r(U)p.r(U)p.r(G)p.r(A)p.r(A)p.r(G)p.r(A)p.r(A)p.r(G)p.r(U)p.r(C)p.r(G)p.r(U)p.r(G)p.r(C)p.r(U)p.r(G)p.r(C)p.r(T)p.r(T)}$$$RNA1{StrandType:ss}|RNA2{StrandType:as}$,92%
10,RNA1{r(G)p.[hna](A)p.r(C)p.r(G)p.r(U)p.r(A)p.r(A)p.[hna](A)p.r(C)p.r(G)p.r(G)p.r(C)p.r(C)p.[hna](A)p.r(C)p.r(A)p.[hna](A)p.r(G)p.r(U)p.r(U)p.r(C)}|RNA2{[fl2r](A)p.m(C)p.[fl2r](U)p.m(U)p.[fl2r](G)p.m(U)p.[fl2r](G)p.m(G)p.[fl2r](C)p.m(C)p.[fl2r](G)p.m(U)p.[fl2r](U)p.m(U)p.[fl2r](A)p.m(C)p.[fl2r](G)p.m(U)p.[fl2r](C)p.m(G)p.[fl2r](C)}$$$RNA1{StrandType:ss}|RNA2{StrandType:as}$,7.8%
11,RNA1{r(G)p.[hna](A)p.r(C)p.r(G)p.r(U)p.r(A)p.r(A)p.[hna](A)p.r(C)p.r(G)p.r(G)p.r(C)p.r(C)p.[hna](A)p.r(C)p.r(A)p.[hna](A)p.r(G)p.r(U)p.r(U)p.r(C)}|RNA2{r(A)p.m(C)p.r(U)p.r(U)p.r(G)p.r(U)p.r(G)p.r(G)p.r(C)p.r(C)p.r(G)p.r(U)p.r(U)p.r(U)p.r(A)p.r(C)p.r(G)p.r(U)p.r(C)p.r(G)p.r(C)}$$$RNA1{StrandType:ss}|RNA2{StrandType:as}$,54.2%
12,RNA1{r(G)p.[hna](A)p.r(C)p.r(G)p.r(U)p.r(A)p.r(A)p.[hna](A)p.r(C)p.r(G)p.r(G)p.r(C)p.r(C)p.[hna](A)p.r(C)p.r(A)p.[hna](A)p.r(G)p.r(U)p.r(U)p.r(C)}|RNA2{r(A)p.r(C)p.[lna](T)p.r(U)p.r(G)p.[lna](T)p.r(G)p.r(G)p.r(C)p.r(C)p.r(G)p.r(U)p.r(U)p.[lna](T)p.r(A)p.r(C)p.r(G)p.[lna](T)p.r(C)p.[lna](G)p.[lna](C)}$$$RNA1{StrandType:ss}|RNA2{StrandType:as}$,3.6%
13,RNA1{r(G)p.[hna](A)p.r(C)p.r(G)p.r(U)p.r(A)p.r(A)p.[hna](A)p.r(C)p.r(G)p.r(G)p.r(C)p.r(C)p.[hna](A)p.r(C)p.r(A)p.[hna](A)p.r(G)p.r(U)p.r(U)p.r(C)}|RNA2{r(A)p.r(C)p.r(U)p.r(U)p.r(G)p.r(U)p.r(G)p.r(G)p.r(C)p.r(C)p.r(G)p.r(U)p.r(U)p.r(U)p.r(A)p.r(C)p.r(G)p.r(U)p.[lna](C)p.[lna](G)p.r(C)}$$$RNA1{StrandType:ss}|RNA2{StrandType:as}$,79.1%
14,RNA1{r(G)p.[hna](A)p.r(C)p.r(G)p.r(U)p.r(A)p.r(A)p.[hna](A)p.r(C)p.r(G)p.r(G)p.r(C)p.r(C)p.[hna](A)p.r(C)p.r(A)p.[hna](A)p.r(G)p.r(U)p.r(U)p.r(C)}|RNA2{r(A)p.r(C)p.r(U)p.r(U)p.r(G)p.r(U)p.r(G)p.r(G)p.r(C)p.r(C)p.r(G)p.r(U)p.r(U)p.r(U)p.r(A)p.r(C)p.r(G)p.r(U)p.r(C)p.r(G)p.r(C)}$$$RNA1{StrandType:ss}|RNA2{StrandType:as}$,84.9%
15,RNA1{r(G)p.m(C)p.r(A)p.r(A)p.r(G)p.r(U)p.r(G)p.r(G)p.r(C)p.r(A)p.r(A)p.r(G)p.r(A)p.r(G)p.r(G)p.r(A)p.r(U)p.m(U)p.r(A)p.r(T)p.r(T)}|RNA2{m(U)p.r(A)p.r(A)p.r(U)p.r(C)p.r(C)p.r(U)p.r(C)p.r(U)p.m(U)p.r(G)p.r(C)p.m(C)p.r(A)p.r(C)p.r(U)p.m(U)p.r(G)p.r(C)p.r(T)p.r(T)}$$$RNA1{StrandType:ss}|RNA2{StrandType:as}$,68%
16,RNA1{r(G)p.m(C)p.r(A)p.r(G)p.r(A)p.r(G)p.r(A)p.r(A)p.m(U)p.m(C)p.m(U)p.r(A)p.m(C)p.m(C)p.m(U)p.m(U)p.m(U)p.m(C)p.m(C)p.r(T)p.r(T)}|RNA2{r(G)p.r(G)p.r(A)p.r(A)p.r(A)p.r(G)p.r(G)p.m(U)p.r(A)p.r(G)p.r(A)p.m(U)p.m(U)p.m(C)p.m(U)p.m(C)p.m(U)p.r(G)p.m(C)p.r(T)p.r(T)}$$$RNA1{StrandType:ss}|RNA2{StrandType:as}$,13%
17,RNA1{r(G)p.m(C)p.r(A)p.r(G)p.r(A)p.r(G)p.r(A)p.r(A)p.r(U)p.r(C)p.m(U)p.r(A)p.r(C)p.r(C)p.r(U)p.r(U)p.r(U)p.r(C)p.r(C)p.r(T)p.r(T)}|RNA2{r(G)p.r(G)p.r(A)p.r(A)p.r(A)p.r(G)p.r(G)p.m(U)p.r(A)p.r(G)p.r(A)p.r(U)p.r(U)p.r(C)p.r(U)p.r(C)p.m(U)p.r(G)p.r(C)p.r(T)p.r(T)}$$$RNA1{StrandType:ss}|RNA2{StrandType:as}$,75%
18,RNA1{r(G)p.m(C)p.r(A)p.r(G)p.r(C)p.r(A)p.r(C)p.r(G)p.r(A)p.r(C)p.r(U)p.r(U)p.r(C)p.r(U)p.r(U)p.r(C)p.r(A)p.r(A)p.r(G)p.r(U)p.r(U)}|RNA2{r(C)p.m(U)p.r(U)p.r(G)p.r(A)p.r(A)p.r(G)p.r(A)p.r(A)p.r(G)p.r(U)p.r(C)p.r(G)p.r(U)p.r(G)p.r(C)p.r(U)p.r(G)p.r(C)p.r(U)p.r(U)}$$$RNA1{StrandType:ss}|RNA2{StrandType:as}$,62.7%
19,RNA1{r(G)p.m(C)p.r(A)p.r(G)p.r(C)p.r(A)p.r(C)p.r(G)p.r(A)p.r(C)p.r(U)p.r(U)p.r(C)p.r(U)p.r(U)p.r(C)p.r(A)p.r(A)p.r(G)p.r(U)p.r(U)}|RNA2{r(C)p.r(U)p.r(U)p.r(G)p.r(A)p.r(A)p.r(G)p.r(A)p.r(A)p.r(G)p.r(U)p.r(C)p.r(G)p.r(U)p.r(G)p.r(C)p.r(U)p.r(G)p.r(C)p.r(U)p.r(U)}$$$RNA1{StrandType:ss}|RNA2{StrandType:as}$,71.7%
20,RNA1{r(G)p.m(C)p.r(A)p.r(G)p.r(C)p.r(A)p.r(C)p.r(G)p.r(A)p.r(C)p.r(U)p.r(U)p.r(C)p.r(U)p.r(U)p.r(C)p.r(A)p.r(A)p.r(G)p.r(U)p.r(U)}|RNA2{r(U)p.[fl2r](U)p.r(C)p.r(G)p.r(U)p.r(C)p.r(G)p.r(U)p.r(G)p.r(C)p.r(U)p.r(G)p.r(A)p.r(A)p.r(G)p.r(A)p.r(A)p.r(G)p.r(U)p.r(U)p.r(C)}$$$RNA1{StrandType:ss}|RNA2{StrandType:as}$,77.2%
